Reference: US20120225889A1, “USE OF MACROCYCLIC LACTONE DERIVATIVES FOR THE TREATMENT OF INFLAMMATORY DISORDERS” (PIRAMAL LIFE SCIENCES LIMITED, priority 2010, published 2012)

Tests used:
IL-6 = assay: Human monocyte assay (LPS-induced): IL-6; type: cell-based; details: LPS stimulated human monocytes, 5 h
From the text: The assay was designed as in reference, Physiological Research, 52, 593-598, (2003), the disclosure of which is incorporated by reference for the teaching of the assay.
The objective of the assay is to determine whether compounds of the present invention—mediated inhibition of LPS-induced cytokines from monocytic THP-1 cell line translates to physiologically relevant human cells. Accordingly, the effect of compounds of the present invention on LPS—induced cytokine production from freshly isolated human monocytes was ascertained.
Peripheral blood was collected from healthy donors into potassium EDTA vacutainer tubes (BD Biosciences, USA). hPBMCs were isolated using density gradient separation (Histopaque-1077; Sigma, USA) and suspended in assay medium which is RPMI culture medium (Sigma, USA) containing 10% heat inactivated FBS (JRH Biosciences, Australia), 100 U/mL penicillin (Sigma, USA) and […] streptomycin (Sigma, USA). Monocytes in the hPBMCs were counted using a Coulter Counter following which the cells were resuspended at 2×10^5 monocytes/mL of assay medium. A cell suspension containing 2×10^4 monocytes was aliquoted per well of a 96-well plate (Nunc, USA). Subsequently, the hPBMCs were incubated for 4-5 h at 37° C., 5% CO2. During the incubation, the monocytes adhered to the bottom of 96-well plate. Following the incubation, the non-adherent lymphocytes were washed and assay medium was added to adherent monocytes. After 48 h of incubation at 37° C., 5% CO2, monocytes were pre-treated with various concentrations of test compound (prepared as 20 mM stock in DMSO; 1 μL of […] concentrated solution of test compound was dissolved in 200 μL cell suspension to achieve a final concentration of 0.03, 0.1, 0.3, 1, 3, 10, 30 and 100 μM) or vehicle (0.5% DMSO) or 10 μM dexamethasone (standard IL-6 and TNF-α inhibitor, Sigma, USA) for 30 min at 37° C., 5% CO2 and stimulated with 1 μg/mL LPS (Escherchia coli 0111:B4, Sigma, USA). The cells were then incubated for 5 h at 37° C., 5% CO2 following which supernatants were collected, stored at −70° C. and were assayed later for IL-6, and TNF-α by ELISA (OptiEIA ELISA sets, BD Biosciences, USA). The IC50 values were calculated by a nonlinear regression method using Graph Pad software (Prism 3.03).

[1] = tested on: C57BL mice with DSS induced colitis; assay: DSS induced murine model of acute colitis; type: in vivo
Protocol: The assay was designed as in references, Laboratory Investigation, 80, 1541, (2000), and Faseb Journal, 19:792, (2005), the disclosure of which is incorporated by reference for the teaching of the assay.
Normal, in-house bred female C57BL mice weighing […], 8-10 weeks old, were used. The animals were housed in individually ventilated cages, three per cage, throughout the experimental period.
Experimental colitis was induced in mice by replacing drinking water with 3% (w/v) DSS (molecular weight 36,000-50,000, MP Biomedicals Inc., USA) solution. This solution was prepared in water, freshly every alternate day and was made available to the experimental animals ad libitum, from day 0 to day 10. A batch of six naïve animals received water instead of DSS during this period.
The animals were weighed every day and the record of body weights was maintained. The suspension of test compound (was prepared at a concentration of 0.05 mg/mL, in 0.5% (w/v) CMC after mixing with minimum quantity of Tween 80 necessary to wet the compound, and was administered orally, daily once to the animals at a volume of 10 mL/kg (dose=0.5 mg/kg). This treatment was initiated on day 6 and continued up to day 10. During this period, DSS control animals and naïve animals received CMC (mixed in the same proportion with 100 μL of Tween 80) at a dose of 10 mL/kg, daily once.
On day 11, the animals were sacrificed, blood was collected in heparinized tubes and the following parameters were studied; • 1. Rectal bleeding/blood in faeces • 2. Fecal consistency • 3. Bleeding in colon • 4. Colon weight • 5. Colon length • 6. Change in body weight on day 11 from that of day 0 • 7. Blood hemoglobin concentration
The data are represented in the following tables (Table 8, Table 9 and Table 10) as quantifiable parameters, descriptive parameters and actual scores. The descriptive parameters are represented by DAI. DAI is a research tool used to quantify the symptoms of the colitic animals. DAI is used in order to define response of the treatment or remission of the disease. In order to achieve this, various factors are studied. […] DAI is the sum of the scores of all factors.
On the last day of compound treatment (compound of example 7, 0.5 mg/kg, p.o., […]) the animals were euthanized humanely, blood samples were collected and the colon was excised. Anterior part of the colon was washed with normal saline to remove fecal material and then fixed in 10% NBF (Neutral buffered formalin). After 10 days of fixation the colon specimens were trimmed and processed overnight using automated tissue processor. Following day the specimens were blocked in paraffin and exposed to cold shock overnight at −18° C. Sections (5μ) were made from cross section of the colonic lumen and stained with routine Hematoxyllin (Sigma, USA) & Eosin (Loba Chemie, India) and mounted permanently. Slides were dried for 24 h and then graded histologically. The results were expressed as histological scores. Histological analysis was based on various parameters like presence of inflammatory cells, erosions, crypt destruction, edema and overall architectural changes graded on a score of 0 to 3, wherein 0 corresponds to absence, 1 corresponds to changes in 25% of the circumference of the colonic lumen, 2 corresponds to up to 50% and 3 corresponds to more than 50% of colonic circumference getting affected. All the scores were summed up to arrive to a total histological score for each section. Two random sections were graded and mean was calculated.

[2] = day 11, DSS mice, 0.5 mg/kg orally daily once, day 6 to day 10
[3] = score 0-3 (Table 9), DSS mice, 0.5 mg/kg orally daily once, day 6 to day 10

Compound: C/C=C/C(O)C(C)/C=C/C(=N\O)C(C)C(O)C(C)C1OC(=O)/C(OC)=C/C(C)=C/C(C)C(O)C(CC)C(O)C(C)C/C(C)=C/C=C/C1OC (stereo not shown) [Compound of example 7, (3Z,5E,13E,15E)-18-((5Z,6E,10E)-3,9-Dihydroxy-5-(hydroxymino)-4,8-dimethyldodeca-6,10-dien-2-yl)-9-ethyl-8,10-dihydroxy-3,17-dimethoxy-5,7,11,13-tetramethyl oxacyclooctadeca-3,5,13,15-tetraen-2-one]
- IC50 (IL-6): 300 nM
- Group mean histological score (colon) ([1]; 0.5 mg/kg, p.o., b.i.d, DSS control 7.50+0.96): 5.33+0.99
- histological damage (colon) ([1]; DSS induced colitic C57BL mice): confer protection against histological damage
- Hbg % ([1]; blood hemoglobin, day 11, DSS mice, 0.5 mg/kg orally daily once, day 6 to day 10): 10.77 ± 0.48 g %
- Colon length [1, 2]: 7.33 ± 0.30
- Colon weight mg [1, 2]: 273.8 ± 8.93 mg
- Colon weight mg per cm [1, 2]: 37.6 ± 1.8 mg per cm
- Change in body weight ([1]; day 11 from day 0, DSS mice, 0.5 mg/kg orally daily once, day 6 to day 10): +0.57 ± 0.28
- severity of colitis ([1]; orally 0.5 mg/kg, mice with DSS induced colitis): reduces the severity of colitis
- Blood in colon score [1, 3]: 0.61 ± 0.30
- Fecal consistency score [1, 3]: 1.0 ± 0.50
- Rectal bleeding score [1, 3]: 0.18 ± 0.15
- Disease activity index ([1]; sum of the scores of all features, DSS mice, 0.5 mg/kg orally daily once, day 6 to day 10): 1.67 ± 0.47
